# Measurements taken from the kinase profiling compilation of Christmann-Franck et al. (2016).
# Several values for one entry are separate records, joined by “and”; a condition that tells them apart may be missing. Equal values may be shown once.
# How the values were obtained:
# Experiment in all cases: radiometric filter-binding kinase assay, Kinase HotSpot
# Details in all cases: compound 0.5 µM; ATP 10 µM
# ADRBK1 (human) = ADRBK1 (human) (UniProt P25098)
# AKT2 (human) = AKT2 (human) (UniProt P31751)
# CAMK1 (human) = CAMK1 (human) (UniProt Q14012)
# CAMK2A (human) = CAMK2A (human) (UniProt Q9UQM7)
# CDK5 CDK5R1 p35 (human) = CDK5 CDK5R1 p35 (human) (UniProt Q00535+Q15078)
# CDK6 CCND1 (human) = CDK6 CCND1 (human) (UniProt Q00534+P24385)
# CLK2 (human) = CLK2 (human) (UniProt P49760)
# CSNK1D (human) = CSNK1D (human) (UniProt P48730)
# DAPK3 (human) = DAPK3 (human) (UniProt O43293)
# Sequence of DAPK3 (human) (O43293 whole entry, looked up): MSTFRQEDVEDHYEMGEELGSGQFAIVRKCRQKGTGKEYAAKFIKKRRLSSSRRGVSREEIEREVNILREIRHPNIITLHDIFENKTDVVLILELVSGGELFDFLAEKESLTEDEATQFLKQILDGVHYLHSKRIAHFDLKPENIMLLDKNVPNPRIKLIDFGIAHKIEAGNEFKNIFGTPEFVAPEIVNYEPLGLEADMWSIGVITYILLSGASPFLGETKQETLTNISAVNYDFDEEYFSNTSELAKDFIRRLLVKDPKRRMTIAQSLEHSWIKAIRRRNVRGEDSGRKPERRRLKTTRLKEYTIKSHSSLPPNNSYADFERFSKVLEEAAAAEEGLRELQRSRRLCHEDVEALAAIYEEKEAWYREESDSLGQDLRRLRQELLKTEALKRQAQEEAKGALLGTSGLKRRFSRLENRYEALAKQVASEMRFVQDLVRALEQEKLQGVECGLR
# DMPK (human) = DMPK (human) (UniProt Q09013)
# DYRK4 (human) = DYRK4 (human) (UniProt Q9NR20)
# Sequence of DYRK4 (human) (Q9NR20 whole entry, looked up): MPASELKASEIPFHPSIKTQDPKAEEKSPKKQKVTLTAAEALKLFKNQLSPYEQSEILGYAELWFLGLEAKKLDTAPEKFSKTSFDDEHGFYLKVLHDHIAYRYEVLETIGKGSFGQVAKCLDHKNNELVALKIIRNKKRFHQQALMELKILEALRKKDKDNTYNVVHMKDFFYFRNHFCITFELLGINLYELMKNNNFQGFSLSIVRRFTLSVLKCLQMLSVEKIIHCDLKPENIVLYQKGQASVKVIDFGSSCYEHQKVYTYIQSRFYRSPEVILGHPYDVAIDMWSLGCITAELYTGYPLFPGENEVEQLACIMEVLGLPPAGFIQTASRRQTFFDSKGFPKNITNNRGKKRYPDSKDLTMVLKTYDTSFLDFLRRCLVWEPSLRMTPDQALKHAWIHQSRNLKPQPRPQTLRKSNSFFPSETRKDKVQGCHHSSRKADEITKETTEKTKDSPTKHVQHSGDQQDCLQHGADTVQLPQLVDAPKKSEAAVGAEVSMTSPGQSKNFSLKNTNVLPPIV
# GRK4 (human) = GRK4 (human) (UniProt P32298)
# HIPK4 (human) = HIPK4 (human) (UniProt Q8NE63)
# IKBKE (human) = IKBKE (human) (UniProt Q14164)
# KIT (human) = KIT (human) (UniProt P10721)
# Sequence of KIT (human) (P10721 whole entry, looked up): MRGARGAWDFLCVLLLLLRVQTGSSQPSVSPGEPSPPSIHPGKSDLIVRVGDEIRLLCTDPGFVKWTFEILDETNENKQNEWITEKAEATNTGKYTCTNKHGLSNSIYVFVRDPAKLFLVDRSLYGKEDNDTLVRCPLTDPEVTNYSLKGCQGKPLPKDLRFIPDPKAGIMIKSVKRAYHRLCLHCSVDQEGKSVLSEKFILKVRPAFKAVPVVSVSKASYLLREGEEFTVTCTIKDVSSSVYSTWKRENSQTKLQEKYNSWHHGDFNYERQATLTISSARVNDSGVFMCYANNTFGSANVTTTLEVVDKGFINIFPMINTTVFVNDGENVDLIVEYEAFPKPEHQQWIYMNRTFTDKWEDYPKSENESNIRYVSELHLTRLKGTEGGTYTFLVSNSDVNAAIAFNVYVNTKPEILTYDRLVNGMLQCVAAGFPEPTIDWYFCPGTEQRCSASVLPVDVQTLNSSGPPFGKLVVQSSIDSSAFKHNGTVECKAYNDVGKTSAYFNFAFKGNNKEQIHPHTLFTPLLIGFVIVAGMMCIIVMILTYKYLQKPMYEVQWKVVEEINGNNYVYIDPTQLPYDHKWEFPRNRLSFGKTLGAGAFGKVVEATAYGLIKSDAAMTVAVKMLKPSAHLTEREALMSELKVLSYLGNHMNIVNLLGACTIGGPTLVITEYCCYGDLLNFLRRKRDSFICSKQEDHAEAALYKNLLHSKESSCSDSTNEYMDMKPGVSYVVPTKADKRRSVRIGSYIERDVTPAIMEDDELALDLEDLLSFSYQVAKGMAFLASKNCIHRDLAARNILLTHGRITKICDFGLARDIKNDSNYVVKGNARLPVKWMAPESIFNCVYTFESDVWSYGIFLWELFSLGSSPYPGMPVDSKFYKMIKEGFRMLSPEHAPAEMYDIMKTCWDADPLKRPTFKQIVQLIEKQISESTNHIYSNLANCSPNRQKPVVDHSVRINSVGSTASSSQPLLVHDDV
# LCK (human) = LCK (human) (UniProt P06239)
# MAP3K10 (human) = MAP3K10 (human) (UniProt Q02779)
# MAP3K14 (human) = MAP3K14 (human) (UniProt Q99558)
# MAP3K5 (human) = MAP3K5 (human) (UniProt Q99683)
# MAP4K2 (human) = MAP4K2 (human) (UniProt Q12851)
# MAPK13 (human) = MAPK13 (human) (UniProt O15264)
# MARK1 (human) = MARK1 (human) (UniProt Q9P0L2)
# MET (human) = MET (human) (UniProt P08581)
# Sequence of MET (human) (P08581 whole entry, looked up): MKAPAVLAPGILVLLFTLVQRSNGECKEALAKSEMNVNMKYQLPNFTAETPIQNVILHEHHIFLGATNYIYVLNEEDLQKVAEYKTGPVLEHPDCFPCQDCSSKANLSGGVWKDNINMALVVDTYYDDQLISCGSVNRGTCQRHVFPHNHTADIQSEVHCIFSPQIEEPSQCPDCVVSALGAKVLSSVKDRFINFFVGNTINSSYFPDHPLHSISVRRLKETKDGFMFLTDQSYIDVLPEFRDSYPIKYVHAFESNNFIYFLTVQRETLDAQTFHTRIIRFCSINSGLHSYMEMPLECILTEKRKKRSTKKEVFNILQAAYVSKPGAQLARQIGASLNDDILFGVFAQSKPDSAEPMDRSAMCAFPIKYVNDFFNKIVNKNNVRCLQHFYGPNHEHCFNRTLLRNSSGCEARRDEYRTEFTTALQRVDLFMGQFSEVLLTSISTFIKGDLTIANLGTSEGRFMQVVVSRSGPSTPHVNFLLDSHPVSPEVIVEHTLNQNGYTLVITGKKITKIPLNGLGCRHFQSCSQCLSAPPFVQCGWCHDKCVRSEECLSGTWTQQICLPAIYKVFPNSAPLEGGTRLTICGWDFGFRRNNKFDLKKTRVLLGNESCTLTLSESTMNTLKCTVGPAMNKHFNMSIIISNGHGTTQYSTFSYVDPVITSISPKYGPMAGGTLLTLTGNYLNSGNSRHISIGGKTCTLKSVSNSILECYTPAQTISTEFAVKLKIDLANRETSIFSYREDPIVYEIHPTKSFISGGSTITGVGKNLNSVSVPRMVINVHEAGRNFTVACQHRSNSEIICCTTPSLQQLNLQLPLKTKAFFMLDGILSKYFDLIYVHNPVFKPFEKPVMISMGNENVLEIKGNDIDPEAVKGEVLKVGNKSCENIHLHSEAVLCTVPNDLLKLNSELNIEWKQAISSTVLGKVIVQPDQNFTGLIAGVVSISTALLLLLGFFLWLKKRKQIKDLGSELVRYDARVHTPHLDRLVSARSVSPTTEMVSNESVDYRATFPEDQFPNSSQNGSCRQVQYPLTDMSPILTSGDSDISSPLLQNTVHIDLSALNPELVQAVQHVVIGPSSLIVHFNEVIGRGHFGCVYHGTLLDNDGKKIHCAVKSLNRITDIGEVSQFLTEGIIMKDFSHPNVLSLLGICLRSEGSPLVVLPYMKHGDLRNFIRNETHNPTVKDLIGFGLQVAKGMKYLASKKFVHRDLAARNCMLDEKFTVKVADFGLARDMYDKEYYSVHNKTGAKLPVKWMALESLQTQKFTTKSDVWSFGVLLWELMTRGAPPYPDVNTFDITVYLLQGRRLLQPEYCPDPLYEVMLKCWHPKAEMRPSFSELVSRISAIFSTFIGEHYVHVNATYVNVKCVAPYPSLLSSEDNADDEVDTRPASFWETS
# MINK1 (human) = MINK1 (human) (UniProt Q8N4C8)
# MUSK (human) = MUSK (human) (UniProt O15146)
# MYLK (human) = MYLK (human) (UniProt Q15746)
# NTRK3 (human) = NTRK3 (human) (UniProt Q16288)
# NUAK1 (human) = NUAK1 (human) (UniProt O60285)
# PAK2 (human) = PAK2 (human) (UniProt Q13177)
# PAK7 (human) = PAK7 (human) (UniProt Q9P286)
# PLK2 (human) = PLK2 (human) (UniProt Q9NYY3)
# PRKCE (human) = PRKCE (human) (UniProt Q02156)
# Sequence of PRKCE (human) (Q02156 whole entry, looked up): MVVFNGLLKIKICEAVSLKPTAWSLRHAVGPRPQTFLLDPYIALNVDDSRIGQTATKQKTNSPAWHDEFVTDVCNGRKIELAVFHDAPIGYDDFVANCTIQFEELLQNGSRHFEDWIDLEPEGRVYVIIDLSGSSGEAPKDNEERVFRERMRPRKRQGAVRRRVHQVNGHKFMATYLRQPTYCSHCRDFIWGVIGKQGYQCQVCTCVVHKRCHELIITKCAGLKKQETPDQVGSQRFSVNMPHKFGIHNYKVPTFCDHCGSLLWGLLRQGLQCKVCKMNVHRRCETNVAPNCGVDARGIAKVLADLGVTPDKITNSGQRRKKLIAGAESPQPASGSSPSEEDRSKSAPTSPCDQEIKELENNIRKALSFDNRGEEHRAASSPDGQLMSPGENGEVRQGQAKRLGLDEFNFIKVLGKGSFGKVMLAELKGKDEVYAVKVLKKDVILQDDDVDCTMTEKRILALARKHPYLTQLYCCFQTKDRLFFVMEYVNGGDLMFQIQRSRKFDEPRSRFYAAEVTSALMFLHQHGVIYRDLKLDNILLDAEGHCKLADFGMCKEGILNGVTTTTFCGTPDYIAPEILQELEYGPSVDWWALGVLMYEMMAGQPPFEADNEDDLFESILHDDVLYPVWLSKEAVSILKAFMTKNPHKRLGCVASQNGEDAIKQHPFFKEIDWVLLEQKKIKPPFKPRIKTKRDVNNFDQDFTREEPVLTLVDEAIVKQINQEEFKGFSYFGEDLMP
# PRKG1 (human) = PRKG1 (human) (UniProt Q13976)
# Sequence of PRKG1 (human) (Q13976 whole entry, looked up): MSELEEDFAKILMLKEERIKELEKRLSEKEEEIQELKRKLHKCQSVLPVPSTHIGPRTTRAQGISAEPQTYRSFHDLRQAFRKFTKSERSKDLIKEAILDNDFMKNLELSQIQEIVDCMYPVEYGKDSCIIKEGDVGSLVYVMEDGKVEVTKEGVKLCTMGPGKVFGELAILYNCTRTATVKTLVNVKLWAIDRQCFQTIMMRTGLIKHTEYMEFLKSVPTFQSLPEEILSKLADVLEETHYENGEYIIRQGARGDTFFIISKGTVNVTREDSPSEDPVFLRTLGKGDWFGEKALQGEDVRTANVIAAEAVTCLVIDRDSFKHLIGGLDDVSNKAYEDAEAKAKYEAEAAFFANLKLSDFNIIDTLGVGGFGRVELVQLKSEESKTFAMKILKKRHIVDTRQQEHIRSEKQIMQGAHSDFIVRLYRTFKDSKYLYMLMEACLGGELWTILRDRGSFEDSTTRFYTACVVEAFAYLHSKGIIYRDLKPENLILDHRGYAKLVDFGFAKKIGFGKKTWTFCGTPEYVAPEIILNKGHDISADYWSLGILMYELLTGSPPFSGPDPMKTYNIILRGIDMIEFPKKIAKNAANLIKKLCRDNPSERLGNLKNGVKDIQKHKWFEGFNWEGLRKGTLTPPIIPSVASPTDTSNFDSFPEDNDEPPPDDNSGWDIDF
# RPS6KA2 KD1 KD2 (human) = RPS6KA2 KD1 KD2 (human) (UniProt Q15349)
# RPS6KB1 (human) = RPS6KB1 (human) (UniProt P23443)
# SRPK1 (human) = SRPK1 (human) (UniProt Q96SB4)
# STK10 (human) = STK10 (human) (UniProt O94804)
# STK17A (human) = STK17A (human) (UniProt Q9UEE5)
# STK25 (human) = STK25 (human) (UniProt O00506)
# SYK (human) = SYK (human) (UniProt P43405)
# TAOK1 (human) = TAOK1 (human) (UniProt Q7L7X3)
# TAOK2 (human) = TAOK2 (human) (UniProt Q9UL54)
compound,measurement,setting,value
CCCNC(=O)Nc1ccc(Oc2ncnc3cc(OC)c(OC)cc23)cc1Cl,residual activity,ADRBK1 (human),103%
same,residual activity,AKT2 (human),89.7%
same,residual activity,CAMK1 (human),96.7%
same,residual activity,CAMK2A (human),97.5%
same,residual activity,CDK5 CDK5R1 p35 (human),98%
same,residual activity,CDK6 CCND1 (human),92.9%
same,residual activity,CLK2 (human),89.5%
same,residual activity,CSNK1D (human),98.9%
same,residual activity,DAPK3 (human),88.8%
same,residual activity,DMPK (human),100%
same,residual activity,DYRK4 (human),106%
same,residual activity,GRK4 (human),94.4%
same,residual activity,HIPK4 (human),93.5%
same,residual activity,IKBKE (human),93.5%
same,residual activity,KIT (human),39.2%
same,residual activity,LCK (human),81.8%
same,residual activity,MAP3K10 (human),103%
same,residual activity,MAP3K14 (human),109%
same,residual activity,MAP3K5 (human),102%
same,residual activity,MAP4K2 (human),83.1%
same,residual activity,MAPK13 (human),100%
same,residual activity,MARK1 (human),97.6%
same,residual activity,MET (human),73.6%
same,residual activity,MINK1 (human),90.1%
same,residual activity,MUSK (human),101%
same,residual activity,MYLK (human),97.4%
same,residual activity,NTRK3 (human),89%
same,residual activity,NUAK1 (human),92.3%
same,residual activity,PAK2 (human),81.4%
same,residual activity,PAK7 (human),84.5%
same,residual activity,PLK2 (human),104%
same,residual activity,PRKCE (human),96.8%
same,residual activity,PRKG1 (human),76.8% and 95.4%
same,residual activity,RPS6KA2 KD1 KD2 (human),95.7%
same,residual activity,RPS6KB1 (human),90.6%
same,residual activity,SRPK1 (human),102%
same,residual activity,STK10 (human),35%
same,residual activity,STK17A (human),99%
same,residual activity,STK25 (human),92.6%
same,residual activity,SYK (human),97.5%
same,residual activity,TAOK1 (human),92.2%
same,residual activity,TAOK2 (human),94.5%
CC(C)n1cnc2c(Nc3cccc(Cl)c3)nc(NCCO)nc21,residual activity,ADRBK1 (human),96%
same,residual activity,AKT2 (human),92.4%
same,residual activity,CAMK1 (human),71.2%
same,residual activity,CAMK2A (human),99.1%
same,residual activity,CDK5 CDK5R1 p35 (human),22.7%
same,residual activity,CDK6 CCND1 (human),95.5%
same,residual activity,CLK2 (human),25%
same,residual activity,CSNK1D (human),48.5%
same,residual activity,DAPK3 (human),102%
same,residual activity,DMPK (human),98.5%
same,residual activity,DYRK4 (human),91.2%
same,residual activity,GRK4 (human),93.5%
same,residual activity,HIPK4 (human),94.6%
same,residual activity,IKBKE (human),97.6%
same,residual activity,KIT (human),76.3%
same,residual activity,LCK (human),84.9%
same,residual activity,MAP3K10 (human),90.3%
same,residual activity,MAP3K14 (human),97.4%
same,residual activity,MAP3K5 (human),114%
same,residual activity,MAP4K2 (human),87.6%
same,residual activity,MAPK13 (human),99%
same,residual activity,MARK1 (human),87.6%
same,residual activity,MET (human),83.9%
same,residual activity,MINK1 (human),86.3%
same,residual activity,MUSK (human),58.6%
same,residual activity,MYLK (human),87.8%
same,residual activity,NTRK3 (human),30.7%
same,residual activity,NUAK1 (human),67.3%
same,residual activity,PAK2 (human),106%
same,residual activity,PAK7 (human),80.4%
same,residual activity,PLK2 (human),95.9%
same,residual activity,PRKCE (human),93.6%
same,residual activity,PRKG1 (human),92.2% and 98.1%
same,residual activity,RPS6KA2 KD1 KD2 (human),62.1%
same,residual activity,RPS6KB1 (human),93.3%
same,residual activity,SRPK1 (human),61.7%
same,residual activity,STK10 (human),86.9%
same,residual activity,STK17A (human),96.8%
same,residual activity,STK25 (human),92.9%
same,residual activity,SYK (human),85.1%
same,residual activity,TAOK1 (human),94.4%
same,residual activity,TAOK2 (human),97.2%
